Series [1] concerns MCF7 (human breast carcinoma) cells. As to the kind of experiment: Cell growth assay (XTT), MCF7. Format: cell-based. The conditions noted are these: Homo sapiens, MCF7; 72 h drug exposure, XTT; read-out: Antiproliferative activity IC50 MCF7. An outline of the steps:
(§1)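 Cells (1.5 × 10^4 cells/mL for MCF7, HeLa, HEK293; 3 × 10^4 cells/mL for HT-29) attached 24 h, then treated 72 h at 37 °C, 5% CO2. Screened at 1 µM; IC50 versus untreated controls from 10^−5 to 10^−10 M by nonlinear fit. XTT/PMS absorbance at 450 nm after 4 h (MCF7, HeLa) or 6 h (HT-29, HEK293); HT-29 with 10 µM verapamil.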

In series [2] the target is T1, microtubular protein isolated from calf brain (Bos taurus, UniProt P81947+Q6B856).
T1 construct: isolated from calf brain according to the modified Shelanski method; from tissue; host or cells: calf brain
T1 sequence (Q6B856 whole entry): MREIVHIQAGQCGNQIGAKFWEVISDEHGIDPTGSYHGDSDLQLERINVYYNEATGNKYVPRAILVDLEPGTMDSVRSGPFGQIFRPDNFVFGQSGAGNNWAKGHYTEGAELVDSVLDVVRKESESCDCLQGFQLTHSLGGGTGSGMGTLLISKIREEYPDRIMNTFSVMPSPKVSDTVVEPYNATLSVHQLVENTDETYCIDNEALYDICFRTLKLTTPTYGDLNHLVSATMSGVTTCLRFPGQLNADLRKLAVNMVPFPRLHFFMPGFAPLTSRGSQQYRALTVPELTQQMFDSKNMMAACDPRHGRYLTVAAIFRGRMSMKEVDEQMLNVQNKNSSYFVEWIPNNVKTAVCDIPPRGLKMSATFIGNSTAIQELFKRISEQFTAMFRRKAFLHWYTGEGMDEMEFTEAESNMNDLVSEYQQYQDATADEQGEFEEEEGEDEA
T1 sequence (P81947 whole entry): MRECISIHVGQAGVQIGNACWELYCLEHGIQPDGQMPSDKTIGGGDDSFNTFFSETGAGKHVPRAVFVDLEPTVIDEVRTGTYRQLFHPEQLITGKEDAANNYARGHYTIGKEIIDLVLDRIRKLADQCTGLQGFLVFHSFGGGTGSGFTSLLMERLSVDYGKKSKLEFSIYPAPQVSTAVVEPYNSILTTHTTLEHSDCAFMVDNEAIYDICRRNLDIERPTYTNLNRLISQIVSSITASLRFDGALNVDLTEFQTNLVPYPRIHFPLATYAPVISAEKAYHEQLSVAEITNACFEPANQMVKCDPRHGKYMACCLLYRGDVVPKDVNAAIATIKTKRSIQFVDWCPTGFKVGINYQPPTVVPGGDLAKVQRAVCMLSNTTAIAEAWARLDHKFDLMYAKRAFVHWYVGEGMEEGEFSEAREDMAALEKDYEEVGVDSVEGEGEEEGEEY
In words: Inhibition of tubulin polymerisation (turbidity). The class given is biochemical. The conditions noted are these: for TPI % 10 µM: 10 µM compound, 1.5 mg/mL microtubular protein; for IC50: in vitro tubulin polymerisation inhibition, read-out: TPI IC50.

Series [3] has as its system HEK293 (human embryonic kidney) cells. As to the kind of experiment: Cell growth assay (XTT), non-tumorigenic HEK293. Format: cell-based. The conditions noted are these: for IC50: Homo sapiens, HEK293, non-tumorigenic cell line, 72 h, XTT, read-out: Antiproliferative activity IC50 HEK293. The procedure: The presence of mycoplasma was routinely checked with MycoAlert kit (Lonza-Cambrex) and only mycoplasma-free cells were used in the experiments. Tumour cell lines were kindly provided by Dr Faustino Mollinedo from Centro de Investigaciones Biológicas Margarita Salas, Madrid, Spain. To determine cell growth, cells in exponential growth phase were seeded (100 µL/well in 96-well plates) with appropriate cell concentration (1.5 × 10^4 cells/mL for MCF7, HeLa and HEK-293 and 3 × 10^4 cells/mL for HT-29) in complete DMEM or RPMI 1640 medium (see above) at 37 °C and 5% CO2 atmosphere. After 24 h incubation, to allow cells to attach to the plates, all compounds were added at 1 µM concentration (10 µL/well in 96-well plates) and the effect on the proliferation was evaluated 72 h post-treatment. Compounds showing antiproliferative effects at tested concentration were selected for IC50 calculation (50% inhibitory concentration compared to the untreated controls) from 10^−5 to 10^−10 M concentration. Nonlinear curves fitting the experimental data were carried out for each compound. […] A freshly prepared mixture solution of XTT labelling reagent with 0.02% (v/v) PMS (N-methyl-dibenzopyrazine methyl sulfate) electron coupling reagent was added to cells (50 µL/well in 96-well plates, the total volume of 160 µL/well) and were incubated during the corresponding time according to each cell line (4 h for MCF7 and HeLa and 6 h for HT-29 and HEK-293) in a humidified atmosphere (37 °C, 5% CO2). The absorbance of the formazan product generated was measured at a test wavelength of 450 nm using a multi-well plate reader (Ultra Evolution, Tecan, Männedorf, Suiza). Compounds were dissolved in DMSO and the final solvent concentrations never exceeded 0.5% (v/v). The control wells included treated cells with 0.5% (v/v) DMSO and the positive control. 10 µM verapamil was included as a control for the HT-29 cell line. Measurements were performed in triplicate, and each experiment was repeated three times.
For orientation: Tetrazolium assays rely on reduction of a dye to a coloured formazan, in cell work by metabolically active cells.

Series [4] has as its system HT-29 (human colon carcinoma) cells. In words: Cell growth assay (XTT), HT-29, alone or with verapamil. The class given is cell-based.
Series [5] deals with HeLa (human cervical carcinoma) cells. As to the kind of experiment: Cell growth assay (XTT), HeLa. Format: cell-based. The conditions noted are these: 72 h drug exposure, read-out: Antiproliferative activity IC50 HeLa. Put shortly: as §1
Series [6] in a line: Aqueous solubility (saturation shake-flask, UV). Format: physicochemical. The conditions noted are these: aqueous buffer, thermodynamic from solid, pH 7.0 phosphate buffer, room temperature. The procedure:
The aqueous solubility was determined in a Helios-α UV-320 Spectrophotometer Thermo-Spectronic, Thermo Fischer Scientific, Waltham, MA, USA) using an approach based on the saturation shake-flask method. 1–2 mg of each selected compound was suspended in 300 µL pH 7.0 buffer and stirred for 48 h at room temperature. The resulting mixture was filtered through a […] filter to discard the insoluble residues. A scan between 270 and 400 nm for the tested compound was performed and three wavelengths of maximum absorbance were selected. Calibration curves were performed at these wavelengths and the concentration in the supernatant was measured by UV absorbance. The final value was given as the average of the three measurements.

The mark [7] stands for this setting: 72 h, in the presence of Pgp/MDR1 inhibitor verapamil (10 µM), read-out: Antiproliferative activity IC50 HT-29 Verap.
Where [8] appears, read: Homo sapiens, HT-29, 72 h drug exposure, XTT, read-out: Antiproliferative activity IC50 HT-29.

In brackets after ≈: the same amount, converted by molar mass. Read-outs that look alike come from different tables or passages of the source.

`COc1ccc(S(=O)(=O)Nc2cc(OC)c(Br)cc2OC)cc1` [Compound 23, N-(4-bromo-2,5-dimethoxyphenyl)-4-methoxybenzenesulphonamide]: the melting point (in general, the temperature of the solid-liquid transition) lay in the range of 118 to 119 °C. In series [1], the IC50 (usually the concentration that inhibits the measured activity by half) was 25 nM. Moreover, in series [2], the “TPI % 10 µM” value is 65% and the IC50 was 6900 nM. In series [3], the “Selectivity index HEK293 vs HeLa and MCF7 tumour cells” value (“Selectivity index HEK293” for short) is on record as 0.5 to 2 fold; the IC50 came out at 43 nM. For the same molecule, the concentration for half-maximal inhibition (IC50) in series [4] (setting [7]) turned out to be 30 nM. Besides, in series [4] (setting [8]), the IC50 is 72 nM. For the same molecule, the IC50 in series [5] came out at 45 nM. Moreover, in series [6], the solubility (commonly the concentration that dissolves in the medium under given conditions) at 48 h was found to be 9 µg/mL (≈ 22.4 µM).
In turn, `COc1ccc(S(=O)(=O)N(C)c2cc(OC)c(Br)cc2OC)cc1` [Compound 24, N-(4-bromo-2,5-dimethoxyphenyl)-4-methoxy-N-methylbenzenesulphonamide] came in with a melting point of 132 to 133 °C. Besides, in series [1], the IC50 came out at 19 nM. Further, in series [2], the “TPI % 10 µM” value worked out at 59% and the IC50 was found to be 7600 nM. Further, in series [3], the “Selectivity index HEK293” value is 3- to 5 fold; the IC50 is 91 nM. For the same molecule, the IC50 in series [4] (setting [7]) turned out to be 160 nM. In series [4] (setting [8]), the 50% inhibitory concentration (IC50) amounted to 123 nM. The IC50 in series [5] was 33 nM. The solubility at 48 h in series [6] came out at 1 µg/mL (≈ 2.4 µM).
`COc1ccc(S(=O)(=O)N(C)c2cc(OC)ccc2OC)cc1` [Compound 22, N-(2,5-dimethoxyphenyl)-4-methoxy-N-methylbenzenesulphonamide] had a melting point of 105 to 110 °C. For the same molecule, in series [1], the IC50 was found to be 153 nM. Also, in series [2], the “TPI % 10 µM” value amounted to 4% and the IC50 was greater than 10000 nM. In addition, in series [3], the “Selectivity index HEK293” value is 3- to 5 fold; the IC50 is 517 nM. The IC50 in series [4] (setting [7]) amounted to 305 nM. Further, the 50% inhibitory concentration (IC50) in series [4] (setting [8]) was 250 nM. For the same molecule, the IC50 in series [5] worked out at 177 nM. The solubility at 48 h in series [6] amounted to 25 µg/mL (≈ 74.1 µM).
